Data as given in patent US5916881A, “High trehalose content syrup” (Kabushiki Kaisha Hayashibara Seibutsu Kagaku Kenkyujo, priority 1996, dated 1999).
“Also recorded” adds a separate entry of the source.

Experiment: Trehalose crystallization inhibitory effect of coexisting saccharides in a trehalose syrup over the water solubility (Experiment 2)
Format: physicochemical
Settings: trehalose dissolved in an amount over the water solubility; summary of Table 2
Procedure: Trehalose was dissolved by heating in water in an amount of 1.5-times the water solubility at 10° C., and the trehalose solution was allowed to stand at a relatively-cold place for checking the trehalose crystallization inhibitory effect by saccharides. […] With this relationship, testing solutions were prepared by dissolving by heating in 100 parts by weight of water in a respective glass beaker 83 parts by weight of trehalose, and a saccharide in an amount of 10% to the trehalose, i.e., 8.3 parts by weight of the saccharide selected from the group consisting of glucose, maltose, isomaltose, lactose, maltotriose, panose, maltotetraose, sorbitol, maltitol, maltotriitol, sucrose, raffinose, erlose, saccharides such as α-glucosyltrehalose or monoglucosyltrehalose, α-maltosyltrehalose or diglucosyltrehalose, and α-maltotriosyltrehalose or triglucosyltrehalose as disclosed in Japanese Patent Kokai No.143,876/95 by the present applicant; a saccharide such as α-isomaltosyl-α-glucoside or monoglucosyltrehalose as disclosed in Japanese Patent Kokai No.217,784/96 by the same applicant; and a saccharide such as α-maltosyl-α-maltoside or diglucosyltrehalose as disclosed in Japanese Patent Application No.167,486/94 by the same applicant. Each solution was allowed to stand in a thermostatic place kept at 5, 10 or 15° C. for one week, followed by macroscopically observing the presence of trehalose crystal for evaluating the trehalose crystallization inhibitory effect by the saccharides.

SMILES | Trehalose crystallization inhibitory effect (in words)
OC[C@H]1O[C@H](O[C@H]2[C@H](O)[C@@H](O)[C@@H](O[C@H]3O[C@H](CO)[C@@H](O[C@H]4O[C@H](CO)[C@@H](O)[C@H](O)[C@H]4O)[C@H](O)[C@H]3O)O[C@@H]2CO)[C@H](O)[C@@H](O)[C@@H]1O [α-Maltosyl-α-maltoside, α-maltosyl-α-maltoside] | specifically and effectively inhibited
OC[C@H]1O[C@H](O[C@H]2O[C@H](CO)[C@@H](O[C@H]3O[C@H](CO)[C@@H](O[C@H]4O[C@H](CO)[C@@H](O[C@H]5O[C@H](CO)[C@@H](O)[C@H](O)[C@H]5O)[C@H](O)[C@H]4O)[C@H](O)[C@H]3O)[C@H](O)[C@H]2O)[C@H](O)[C@@H](O)[C@@H]1O [α-Maltotriosyltrehalose, α-maltotriosyltrehalose] | specifically and effectively inhibited; also recorded: relatively-low trehalose crystallization inhibitory effect
OC[C@H]1O[C@H](OC[C@H]2O[C@H](O[C@H]3O[C@H](CO)[C@@H](O)[C@H](O)[C@H]3O)[C@H](O)[C@@H](O)[C@@H]2O)[C@H](O)[C@@H](O)[C@@H]1O [α-Isomaltosyl-α-glucoside, α-isomaltosyl-α-glucoside] | specifically and effectively inhibited
